For data set [1] the following is noted: rats; cited from earlier work.
Another data set is described as follows: Rat IV PK. Format: in vivo. The note with it: male, Sprague-Dawley, plasma, 1 mg/kg.
A short description of another data set: Stability in rat plasma. Format: in vitro ADME.
The test system of the next data set is TA98. The data set is described as follows: Bacterial reverse mutation assay. To be noted: with and without S9 metabolic activation; 0.05 to 5.0 mg/plate. In kind it is cell-based, Salmonella typhimurium.
The subject of a further data set is TA100. The data set is described as follows: Bacterial reverse mutation assay. In kind it is cell-based, Salmonella typhimurium. The note with it: with and without S9 metabolic activation; 0.05 to 5.0 mg/plate.
A further data set concerns TA1537. The data set is described as follows: Bacterial reverse mutation assay. Format: cell-based, Salmonella typhimurium. The note with it: with and without S9 metabolic activation; 0.05 to 5.0 mg/plate.
Data set [2] can be described thus: Cynomolgus monkey oral PK. Format: in vivo. To be noted: male, plasma, 5 mg/kg.
For a further data set, the system named is TA135. The data set is described as follows: Bacterial reverse mutation assay. Format: cell-based, Salmonella typhimurium. The note with it: with and without S9 metabolic activation; 0.05 to 5.0 mg/plate.
Data set [3] in a line: Stability in human cryopreserved hepatocytes.
For the next data set, the system named is aldehyde oxidase (AO). The data set is described as follows: Metabolism in hepatic S9 fractions. In kind it is in vitro ADME. The note with it: rat, cynomolgus monkey and human hepatic S9 fractions.
The next data set deals with WP2 uvrA. The data set is described as follows: Bacterial reverse mutation assay. Format: cell-based, Escherichia coli. To be noted: with and without S9 metabolic activation; 0.05 to 5.0 mg/plate.

Turning to `Cc1csc(NC(=O)c2cc(F)cc(Oc3cncnc3)c2)n1` [compound 9], in data set [1], the Clp is listed as 43 mL/min/kg.
Regarding `Cc1cccc(NC(=O)c2cc(Oc3cncnc3)cc(C)n2)n1` [compound 21, 6-Methyl-N-(6-methylpyridin-2-yl)-4-(pyrimidin-5-yloxy)picolinamide], in the data set “Rat IV PK”, the clearance (usually the volume of plasma or blood freed of the substance per unit of time) at 24 h was determined as 34.2 mL/min/kg.
The same measure, in the same setting: then `Cc1cccc(NC(=O)c2cc(Oc3cncc(F)c3)cc(C)n2)n1` [compound 22, 4-((5-Fluoropyridin-3-yl)oxy)-6-methyl-N-(6-methylpyridin-2-yl)picolinamide], with 32.5 mL/min/kg.
For the molecule `CCc1cccc(NC(=O)c2cc(Oc3cncnc3)cc(C)n2)n1` [compound 23, N-(6-Ethylpyridin-2-yl)-6-methyl-4-(pyrimidin-5-yloxy)picolinamide], the clearance at 24 h in the data set “Rat IV PK” stood at 43.7 mL/min/kg.
Turning to `Cc1cc(Oc2cncc(F)c2)cc(C(=O)Nc2cccc(F)n2)n1` [compound 26, N-(6-Fluoropyridin-2-yl)-4-((5-fluoropyridin-3-yl)oxy)-6-methylpicolinamide], the “stability in rat plasma” value in “Stability in rat plasma” is recorded as “instability”. Besides, in the data set “Rat IV PK”, the clearance at 24 h was 96 mL/min/kg.
In the case of `Cc1cc(Oc2cncnc2)cc(C(=O)Nc2ccc(F)cn2)n1` [compound 27, N-(5-Fluoropyridin-2-yl)-6-methyl-4-(pyrimidin-5-yloxy)picolinamide], the “bacterial reverse mutation assay TA98” value in the data set on TA98 is given as “negative”. For the same molecule, the “bacterial reverse mutation assay TA100” value in the data set with TA100 was “negative”. For the same molecule, the “bacterial reverse mutation assay TA1537” value in the data set on TA1537 is recorded as “negative”. Further, in data set [2], the time to peak (Tmax) – broadly, the time from dosing to the highest level – is 3 h. Also, the “bacterial reverse mutation assay TA135” value in the data set with TA135 is reported as “negative”. Besides, the half-life – broadly, the time in which the quantity being followed falls by half – at 5 µM in [3] (both, cryopreserved hepatocytes (pooled, 19 donors)) is above 5 h. The “predicted hepatic clearance (CLHEP)” value in data set [3] (predicted from hepatocytes) is on record as 3.59 mL/min/kg. Besides, in the data set with aldehyde oxidase (AO), the “contribution of AO to metabolism” value is given as “AO contributed significantly to the metabolism”. In the data set “Rat IV PK”, this molecule registered a clearance at 24 h of 19.3 mL/min/kg. In addition, in the data set on WP2 uvrA, the “bacterial reverse mutation assay WP2 uvrA” value was “negative”.
For `Cc1cc(Oc2cncc(F)c2)cc(C(=O)Nc2ccc(F)cn2)n1` [compound 28, N-(5-Fluoropyridin-2-yl)-4-((5-fluoropyridin-3-yl)oxy)-6-methylpicolinamide], the time of peak concentration (Tmax) in [2] was 2 h. In “Rat IV PK”, this molecule came in with a clearance at 24 h of 9.2 mL/min/kg.
`Cc1cc(Oc2cnc(C)nc2)cc(C(=O)Nc2ccc(F)cn2)n1` [compound 33, N-(5-Fluoropyridin-2-yl)-6-methyl-4-((2-methylpyrimidin-5-yl)oxy)picolinamide] registered a clearance at 24 h in the data set “Rat IV PK” of 6.2 mL/min/kg.

The values above are taken from publication PMC5484149 (Journal of Medicinal Chemistry, 2017).
